Laboratory results as given in patent US5770599A, “Quinazoline derivatives” (Zeneca Limited, priority 1995, dated 1998).
Where two headings read alike, the source gives them in different places.

Legend:
[1] = tested on: EGF receptor tyrosine kinase; conditions: Fry et al., Science, 1994, 265, 1093; cited from earlier work
[2] = tested on: human vulval epidermoid carcinoma cell line A-431; assay: Test (c): in vivo inhibition of growth of A-431 xenografts in athymic nude mice; design: species or system human (xenograft in athymic nude mice); conditions: Mus musculus, A-431, 312 h; usually oral, once daily, 13 days; approximately
Procedure: (c) An in-vivo assay in a group of athymic nude mice (strain ONU:Alpk) which determines the ability of a test compound (usually administered orally as a ball-milled suspension in 0.5% polysorbate) to inhibit the growth of xenografts of the human vulval epidermoid carcinoma cell line A-431.
A-431 cells were maintained in culture in DMEM supplemented with 5% FCS and 2 mM glutamine. Freshly cultured cells were harvested by trypsinization and injected subcutaneously (10 million cells/0.1 ml/mouse) into both flanks of a number of donor nude mice. When sufficient tumour material was available (after approximately 9 to 14 days), fragments of tumour tissue were transplanted in the flanks of recipient nude mice (test day 0). Generally, on the seventh day after transplantation (test day 7) groups of 7 to 10 mice with similar-sized tumours were selected and dosing of the test compound was commenced. Once daily dosing of test compound was continued for a total of 13 days (test days 7 to 19 inclusive). In some studies the dosing of the test compound was continued beyond test day 19, for example to test day 26. In each case, on the following test day the animals were killed and the final tumour volume was calculated from measurements of the length and width of the tumours. Results were calculated as a percentage inhibition of tumour volume relative to untreated controls.

[3] = tested on: human naso-pharyngeal cancer cell line KB; assay: cells; type: cell-based; conditions: 72 h, values stated as approximate, EGF 10 ng/ml, 3 days, read-out: Test (b) IC50
Procedure: (b) An in vitro assay which determines the ability of a test compound to inhibit the EGF-stimulated growth of the human naso-pharyngeal cancer cell line KB.
Cell growth was determined after incubation for 3 days by the extent of metabolism of MTT tetrazolium dye to furnish a bluish colour. Cell growth was then determined in the presence of EGF (10 ng/ml) or in the presence of EGF (10 ng/ml) and a test compound at a range of concentrations. An IC50 value could then be calculated.

[4] = target: T1, EGF receptor tyrosine kinase (Homo sapiens, UniProt P00533); assay: Test (a): in vitro assay of inhibition of the enzyme EGF receptor tyrosine kinase (32P peptide phosphorylation); type: biochemical
T1 construct: Receptor tyrosine kinase was obtained in partially purified form from A-431 cells; endogenous in cells; host or cells: A-431 cells (human vulval carcinoma); solubilised membrane fraction
T1 sequence (P00533 25-1210): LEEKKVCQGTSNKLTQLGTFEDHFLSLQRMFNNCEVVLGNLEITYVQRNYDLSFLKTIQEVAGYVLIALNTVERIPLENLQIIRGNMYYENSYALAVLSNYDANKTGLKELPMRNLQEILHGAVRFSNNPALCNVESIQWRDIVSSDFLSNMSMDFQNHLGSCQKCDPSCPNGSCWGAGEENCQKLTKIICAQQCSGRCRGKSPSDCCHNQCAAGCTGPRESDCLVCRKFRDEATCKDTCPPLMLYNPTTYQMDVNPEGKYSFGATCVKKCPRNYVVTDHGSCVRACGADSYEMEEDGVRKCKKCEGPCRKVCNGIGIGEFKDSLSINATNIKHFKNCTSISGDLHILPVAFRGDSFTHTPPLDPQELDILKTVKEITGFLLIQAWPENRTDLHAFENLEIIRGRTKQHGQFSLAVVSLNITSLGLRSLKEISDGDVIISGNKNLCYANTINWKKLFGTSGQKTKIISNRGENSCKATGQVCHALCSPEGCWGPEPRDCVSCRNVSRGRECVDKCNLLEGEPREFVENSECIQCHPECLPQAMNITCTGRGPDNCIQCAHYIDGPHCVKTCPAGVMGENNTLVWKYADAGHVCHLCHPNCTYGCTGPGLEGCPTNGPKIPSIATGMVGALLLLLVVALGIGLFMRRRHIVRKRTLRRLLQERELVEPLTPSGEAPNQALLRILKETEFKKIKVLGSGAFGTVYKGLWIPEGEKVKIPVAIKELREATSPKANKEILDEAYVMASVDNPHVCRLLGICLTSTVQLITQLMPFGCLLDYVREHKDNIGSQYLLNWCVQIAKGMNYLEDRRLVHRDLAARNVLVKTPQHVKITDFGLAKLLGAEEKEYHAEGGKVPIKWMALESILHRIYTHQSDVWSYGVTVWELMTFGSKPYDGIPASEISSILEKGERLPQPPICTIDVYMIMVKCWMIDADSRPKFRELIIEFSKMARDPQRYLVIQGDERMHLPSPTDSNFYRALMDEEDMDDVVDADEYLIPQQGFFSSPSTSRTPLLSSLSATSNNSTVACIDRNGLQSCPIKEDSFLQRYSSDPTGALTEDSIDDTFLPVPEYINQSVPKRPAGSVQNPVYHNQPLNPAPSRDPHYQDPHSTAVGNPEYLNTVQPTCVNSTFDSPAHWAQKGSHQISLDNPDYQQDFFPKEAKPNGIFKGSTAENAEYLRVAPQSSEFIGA
Procedure: (a) An in vitro assay which-determines the ability of a test compound to inhibit the enzyme EGF receptor tyrosine kinase.
A-431 cells were grown to confluence using Dulbecco's modified Eagle's medium (DMEM) containing 5% fetal calf serum (FCS). […] The homogenate was centrifuged at 400 g for 10 minutes at 0°-4° C. The supernatant was centrifuged at 25,000 g for 30 minutes at 0°-4° C. The pelleted material was suspended in 30 mM Hepes buffer at pH 7.4 containing 5% glycerol, 4 mM benzamidine and 1% Triton X-100, stirred for 1 hour at 0°-4° C., and recentrifuged at 100,000 g for 1 hour at 0°-4° C. The supernatant, containing solubilised receptor tyrosine kinase, was stored in liquid nitrogen.
There was thus obtained the test enzyme solution.
Equal volumes of this solution and a solution of epidermal growth factor (EGF; 20 μg/ml) were mixed.
[γ-^32 P]ATP (3000 Ci/mM, 250 μCi) was diluted to a volume of 2 ml by the addition of a solution of ATP (100 μM) in distilled water. An equal volume of a 4 mg/ml solution of the peptide […]in a mixture of 40 mM Hepes buffer at pH 7.4, 0.1% Triton X-100 and 10% glycerol was added.
The test compound/EGF mixture solution (5 μl) was added to the test enzyme solution (10 μl) and the mixture was incubated at 0°-4° C. for 30 minutes. The ATP/peptide mixture (10 μl) was added and the mixture was incubated at 25° C. for 10 minutes. The phosphorylation reaction was terminated by the addition of 5% trichloroacetic acid (40 μl ) and bovine serum albumin (BSA; 1 mg/ml, 5 μl). The mixture was allowed to stand at 4° C. for 30 minutes and then centrifuged. An aliquot (40 μl) of the supernatant was placed onto a strip of Whatman p 81 phosphocellulose paper. The strip was washed in 75 mM phosphoric acid (4×10 ml) and blotted dry. Radioactivity present in the filter paper was measured using a liquid scintillation counter (Sequence A). The reaction sequence was repeated in the absence of the EGF (Sequence B) and again in the absence of the test compound (Sequence C).

[5] = tested on: another carcinoma which does not express EGF receptor tyrosine kinase; conditions: Toi et al., 1990; cited from earlier work
[6] = values stated as approximate, EGF receptor tyrosine kinase from A-431 cells

SMILES | IC50 [3] [nM] | IC50 [4, 6] [nM] | further results
COc1cc2ncnc(Nc3cccc(Br)c3)c2cc1OC [4-(3'-bromoanilino)-6,7-dimethoxyquinazoline] |  |  | inhibition of EGF receptor tyrosine kinase [1]: highly potent inhibitor of EGF receptor tyrosine kinase
COc1cc2ncnc(Nc3ccc(F)c(Cl)c3)c2cc1OCCCN1CCOCC1 [Example 1, 4-(3'-chloro-4'-fluoroanilino)-7-methoxy-6-(3-morpholinopropoxy)quinazoline] |  |  | ED50 [2]: ~12.5 mg/kg
COc1cc2ncnc(Nc3ccc(F)c(Cl)c3)c2cc1OCCN1CCOCC1 [Example 3, 4-(3'-chloro-4'-fluoroanilino)-7-methoxy-6-(2-morpholinoethoxy)quinazoline] | 400 | 10 | 
COc1cc2ncnc(Nc3ccc(F)c(Cl)c3)c2cc1OCCN1CCN(C)CC1 [Example 4, 4-(3'-chloro-4'-fluoroanilino)-7-methoxy-6-[2-(4-methylpiperazin-1-yl)ethoxy]quinazoline] | 100 |  | IC50 [4]: 10 nM
COCCN(CCOC)CCOc1cc2c(Nc3ccc(F)c(Cl)c3)ncnc2cc1OC [Example 5, 4-(3'-chloro-4'-fluoroanilino)-7-methoxy-6-{2-[di-(2-methoxyethyl)amino]ethoxy}quinazoline] | 200 | 60 | 
COc1cc2ncnc(Nc3ccc(F)c(Cl)c3)c2cc1OCCN(C)C [Example 6, 4-(3'-chloro-4'-fluoroanilino)-6-(2-dimethylaminoethoxy)-7-methoxyquinazoline] | 100 | 10 | 
CCN(CC)CCOc1cc2c(Nc3ccc(F)c(Cl)c3)ncnc2cc1OC [Example 7, 4-(3'-chloro-4'-fluoroanilino)-6-(2-diethylaminoethoxy)-7-methoxyquinazoline] | 300 | 90 | 
COc1cc2ncnc(Nc3ccc(F)cc3F)c2cc1OCCCN(C)C [Example 8, 4-(2',4'-difluoroanilino)-6-(3-dimethylaminopropoxy)-7-methoxyquinazoline] | 900 | 480 | 
COc1cc2ncnc(Nc3ccc(F)c(Cl)c3)c2cc1OCC(O)CN1CCOCC1 (stereo not shown) [Example 9, 4-(3'-chloro-4'-fluoroanilino)-6-(2-hydroxy-3-morpholinopropoxy)-7-methoxyquinazoline] | 100 | 10 | 
COc1cc2ncnc(Nc3ccc(F)cc3F)c2cc1OCCCN1CCOCC1 [Example 14, 4-(2',4'-difluoroanilino)-7-methoxy-6-(3-morpholinopropoxy)quinazoline] | 300 | 670 | 
COc1cc2ncnc(Nc3ccc(F)c(F)c3)c2cc1OCCCN(C)C [Example 18, 4-(3',4'-difluoroanilino)-6-(3-dimethylaminopropoxy)-7-methoxyquinazoline] | 390 | 270 | 
COc1cc2ncnc(Nc3ccc(F)c(F)c3)c2cc1OCCCN1CCOCC1 [Example 19, 4-(3',4'-difluoroanilino)-7-methoxy-6-(3-morpholinopropoxy)quinazoline] | 450 | 520 | 
CCN(CC)CCCOc1cc2c(Nc3ccc(F)c(F)c3)ncnc2cc1OC [Example 20, 6-(3-diethylaminopropoxy)-4-(3',4'-difluoroanilino)-7-methoxyquinazoline] | 550 | 670 | 
O=CN/C=C/c1cc(O)ccc1O [erbstatin] |  |  | growth of another carcinoma not expressing EGF receptor tyrosine kinase [5]: without effect on the growth
